Results taken from ChEMBL document CHEMBL2311309, “Venezuelines A-G, new phenoxazine-based alkaloids and aminophenols from Streptomyces venezuelae and the regulation of gene target Nur77” (Bioorg Med Chem Lett, 2013).
Activity calls are given as the source filed them. No cut-off for these calls is given here.

Legend:
Assay type in all cases: functional, cell-based
[1] = Cytotoxicity against human NIH-H460 cells by MTT method
[2] = Cytotoxicity against human […] cells by MTT method
A549 = test: Cytotoxicity against human A549 cells by MTT method
A2780 = test: Cytotoxicity against human A2780 cells by MTT method
HCT-8 = test: Cytotoxicity against human HCT8 cells by MTT method
BGC-823 = test: Cytotoxicity against human BGC823 cells by MTT method
NIH-H460 [3] = test: Induction of nur77 gene expression in human NIH-H460 cells at 1 to 10 uM by RT-PCR analysis; conditions: TDE = time-dependent effect
NIH-H460 [4] = test: Induction of nur77 gene expression in human NIH-H460 cells after 6 to 12 hrs by RT-PCR analysis
NIH-H460 [5] = test: Induction of nur77 gene expression in human NIH-H460 cells at 10 uM within 6 hrs by RT-PCR analysis
NIH-H460 [6] = test: Induction of nur77 gene expression in human NIH-H460 cells at 1 uM within 12 hrs by RT-PCR analysis
NIH-H460 [7] = test: Induction of nur77 gene expression in human NIH-H460 cells after 3 hrs by RT-PCR analysis
NIH-H460 [8] = test: Induction of nur77 gene expression in human NIH-H460 cells at 1 to 10 uM after 3 hrs by RT-PCR analysis

Row | SMILES | IC50 [1] | IC50 [2] | IC50 (A549) | IC50 (A2780) | IC50 (HCT-8) | IC50 (BGC-823) | Activity (NIH-H460 [3]) | Activity (NIH-H460 [4]) | Activity (NIH-H460 [5]) | Activity (NIH-H460 [6]) | Activity (NIH-H460 [7]) | Activity (NIH-H460 [8])
1 | CC(=O)Nc1cc2nc3cc(C(=O)O)ccc3oc-2cc1=O [CARBOXYEXFOLIAZONE] | > 30 µg/mL | > 30 µg/mL | > 30 µg/mL | > 30 µg/mL | > 30 µg/mL | > 30 µg/mL |  |  |  |  |  | 
2 | O=C(CO)Nc1cc2nc3cc(CO)ccc3oc-2cc1=O [CHANDRANANIMYCIN D] | > 30 µg/mL | > 30 µg/mL | > 30 µg/mL | > 30 µg/mL | > 30 µg/mL | > 30 µg/mL |  |  |  |  |  | 
3 | CC(=O)Nc1cc2nc3cc(CO)ccc3oc-2cc1=O [EXFOLIAZONE] | 13.6 µM | > 10 µM | 9.16 µM | 2.52 µM | 4.89 µM | 3.4 µM | tde | Dose-dependent effect | Active | Active |  | 
4 | O=c1[nH]cc(F)c(=O)[nH]1 [FLUOROURACIL] | 7.12 µM | 3.85 µM | 1.54 µM | 5.4 µM | 5.38 µM | 3.84 µM |  |  |  |  |  | 
5 | CC(=O)Nc1cc(Cc2cc3oc4cc(=O)c(NC(C)=O)cc-4nc3cc2CO)ccc1O [VNEZUELINE A] | > 30 µg/mL | > 30 µg/mL | > 30 µg/mL | > 30 µg/mL | > 30 µg/mL | > 30 µg/mL |  |  |  |  |  | 
6 | O=C1NC2=Nc3cc(CO)ccc3O[C@]23[C@H](O)CC[C@H]13 [VNEZUELINE B] | 9.67 µM | > 10 µM | 7.52 µM | 6.57 µM | 5.74 µM | 6.78 µM |  |  |  |  | Dose-dependent effect | 
7 | CC(=O)Nc1cc2c(cc1OC(=O)CO)Oc1ccc(CO)cc1N2 [VNEZUELINE C] | > 50 µg/mL | > 50 µg/mL | > 50 µg/mL | > 50 µg/mL | > 50 µg/mL | > 50 µg/mL |  |  |  |  |  | 
8 | O=C(CO)Nc1cc2c(cc1OC(=O)CO)Oc1ccc(CO)cc1N2 [VNEZUELINE D] | > 50 µg/mL | > 50 µg/mL | > 50 µg/mL | > 50 µg/mL | > 50 µg/mL | > 50 µg/mL |  |  |  |  |  | inactive
9 | CCCC(=O)OCc1ccc2oc3cc(=O)c(NC(C)=O)cc-3nc2c1 [VNEZUELINE E] | > 30 µg/mL | > 30 µg/mL | > 30 µg/mL | > 30 µg/mL | > 30 µg/mL | > 30 µg/mL |  |  |  |  |  | 
10 | CC(=O)Nc1cc(COCc2ccc(O)c(NC(C)=O)c2)ccc1O [VNEZUELINE F] | > 50 µg/mL | > 50 µg/mL | > 50 µg/mL | > 50 µg/mL | > 50 µg/mL | > 50 µg/mL |  |  |  |  |  | 
11 | COCc1ccc(O)c(NC(C)=O)c1 [VNEZUELINE G] | > 50 µg/mL | > 50 µg/mL | > 50 µg/mL | > 50 µg/mL | > 50 µg/mL | > 50 µg/mL |  |  |  |  |  | 
